Experiment [1] deals with T1, CFR1R receptor (Homo sapiens, UniProt P34998).
T1 construct: host or cells: CHO-K1 (clone 2)
T1 sequence (P34998 24-415): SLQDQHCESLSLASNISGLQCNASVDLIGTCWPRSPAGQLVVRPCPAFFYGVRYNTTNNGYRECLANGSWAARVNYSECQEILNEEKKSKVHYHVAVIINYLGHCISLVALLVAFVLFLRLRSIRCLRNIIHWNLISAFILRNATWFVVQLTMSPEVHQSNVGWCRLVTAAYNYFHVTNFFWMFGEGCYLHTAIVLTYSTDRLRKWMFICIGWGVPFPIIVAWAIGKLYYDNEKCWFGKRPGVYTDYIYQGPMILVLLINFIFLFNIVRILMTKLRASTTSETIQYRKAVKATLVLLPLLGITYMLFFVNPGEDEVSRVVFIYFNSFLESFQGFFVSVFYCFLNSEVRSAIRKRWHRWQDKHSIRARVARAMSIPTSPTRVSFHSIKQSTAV
The experiment in a line: Activity at anti-target CFR1R receptor, cAMP assay in CRF1R-overexpression CHO-K1 cells. The following applies: 100% = Sauvagine at 100 nM; for EC50: cAMP. The format is cell-based. In a few lines: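 Uses frozen stocks of CHO-K1 clone 2 cells overexpressing human CRF1R, plated at 4000 cells/well final, with cAMP measured by the same protocol as the TeloHAEC line. Full-activation control: 100 nM Sauvagine.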
For orientation: Cyclic AMP is a second messenger, typically raised through Gs and lowered through Gi signalling.

The target of experiment [2] is T2, human CRF2a receptor (Homo sapiens, UniProt Q13324).
T2 construct: expressed in transfected cells; host or cells: TeloHEAC cells
T2 sequence (Q13324 1-411): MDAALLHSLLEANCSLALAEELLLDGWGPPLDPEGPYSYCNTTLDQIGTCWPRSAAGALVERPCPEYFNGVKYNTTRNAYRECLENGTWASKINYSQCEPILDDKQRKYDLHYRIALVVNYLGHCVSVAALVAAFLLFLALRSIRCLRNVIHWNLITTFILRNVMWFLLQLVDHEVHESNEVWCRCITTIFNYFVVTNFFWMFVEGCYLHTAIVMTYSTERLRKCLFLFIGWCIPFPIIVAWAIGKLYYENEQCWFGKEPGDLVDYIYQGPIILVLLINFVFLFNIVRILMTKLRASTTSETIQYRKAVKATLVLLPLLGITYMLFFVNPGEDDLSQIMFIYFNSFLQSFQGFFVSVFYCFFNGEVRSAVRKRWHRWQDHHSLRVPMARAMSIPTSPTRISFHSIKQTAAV
The experiment in a line: Activity at human CRF2a receptor, cAMP functional assay in TeloHEAC cells. The format is cell-based. The following applies: TeloHEAC cells stably expressing human CRF2a receptor, relative to urocortin 2 (100 nM = 100%). In outline:
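cAMP accumulation was measured by HTRF 665/620 nm ratio after 30 min at 37° C compound exposure (16 twofold dilutions) of CRF2a-expressing TeloHEAC cells, 10000/well, in HEPES-buffered HBSS plus IBMX. Activity was normalised to urocortin 2 at 100 nM (100%), and EC50 was the concentration giving half-maximal activation.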

*1 amine or outer side, *2 acyl side, *3 side chain or, on linkers, in order; H or OH if unused. Where a SMILES comes first, the peptide text is derived from it. Side-chain parts run from the residue outwards. [ ]: non-standard residue; d: D form. The star is where a group is joined. C16 diacid = O=C(O)CCCCCCCCCCCCCCC(=O)*; γGlu = O=C(O)[C@H](CCC(=O)[*:2])N[*:1]; Aib = CC(C)(N)C(=O)O Where only a bound is given, the exact number is not on record here.

One may read the EC50 as the concentration giving half of the maximal effect. Read a low EC50 as an effect from little substance. Take `CC[C@H](C)[C@H](NC(C)=O)C(=O)N[C@H](C(=O)N[C@@H](CC(C)C)C(=O)N[C@@H](CO)C(=O)N[C@@H](CC(C)C)C(=O)N[C@@H](CC(=O)O)C(=O)N[C@@H](C(=O)N1CCC[C@H]1C(=O)N[C@H](C(=O)N[C@@H](C)C(=O)N[C@@H](CC(C)C)C(=O)N[C@@H](CCCCNC(=O)CC[C@H](NC(=O)CCCCCCCCCCCCCCC(=O)O)C(=O)O)C(=O)N[C@@H](CCCCN)C(=O)N[C@H](C(=O)N[C@@H](CC(C)C)C(=O)N[C@@H](CC(C)C)C(=O)N[C@@H](CCC(=O)O)C(=O)N[C@@H](CCC(N)=O)C(=O)N[C@@H](CCC(=O)O)C(=O)N[C@@H](CCCCN)C(=O)N[C@@H](CCC(N)=O)C(=O)N[C@@H](CCCCN)C(=O)N[C@@H](CCCCN)C(=O)N[C@@H](CCC(N)=O)C(=O)N[C@@H](CCCNC(=N)N)C(=O)N[C@@H](CCC(=O)O)C(=O)N[C@@H](CCC(N)=O)C(=O)N[C@@H](C)C(=O)N[C@@H](CCC(=O)O)C(=O)N[C@H](C(=O)N[C@@H](CC(N)=O)C(=O)NC(C)(C)C(=O)N[C@@H](CCC(N)=O)C(=O)N[C@H](C(=O)N[C@@H](CC(C)C)C(=O)N[C@@H](C)C(=O)N[C@@H](CCC(N)=O)C(=O)N[C@H](C(N)=O)C(C)C)[C@@H](C)CC)[C@@H](C)O)[C@@H](C)CC)[C@@H](C)CC)C(C)C)C(C)C` [compound 163] (Ac-IVLSLD[dV]PIALK([γGlu-C16 diacid])KILLEQEKQKKQREQAETN[Aib]QILAQV-NH2): in experiment [1], the “Emax (% I)” value came to 53 % I. Also, the EC50 in experiment [2] was 0.3 nM.

As to `CC[C@H](C)[C@H](NC(C)=O)C(=O)N[C@H](C(=O)N[C@@H](CC(C)C)C(=O)N[C@@H](CO)C(=O)N[C@@H](CC(C)C)C(=O)N[C@@H](CC(=O)O)C(=O)N[C@@H](C(=O)N1CCC[C@H]1C(=O)N[C@H](C(=O)N[C@@H](CCCCN)C(=O)N[C@@H](CC(C)C)C(=O)N[C@@H](CCCCNC(=O)CC[C@H](NC(=O)CCCCCCCCCCCCCCC(=O)O)C(=O)O)C(=O)N[C@@H](C)C(=O)N[C@H](C(=O)N[C@@H](CC(C)C)C(=O)N[C@@H](CC(C)C)C(=O)N[C@@H](CCC(=O)O)C(=O)N[C@@H](CCC(N)=O)C(=O)N[C@@H](CCC(=O)O)C(=O)N[C@@H](CCCCN)C(=O)N[C@@H](CCC(N)=O)C(=O)N[C@@H](CCCCN)C(=O)N[C@@H](CCCCN)C(=O)N[C@@H](CCC(N)=O)C(=O)N[C@@H](CCCNC(=N)N)C(=O)N[C@@H](CCC(=O)O)C(=O)N[C@@H](CCC(N)=O)C(=O)N[C@@H](C)C(=O)N[C@@H](CCC(=O)O)C(=O)N[C@H](C(=O)N[C@@H](CC(N)=O)C(=O)NC(C)(C)C(=O)N[C@@H](CCC(N)=O)C(=O)N[C@H](C(=O)N[C@@H](CC(C)C)C(=O)N[C@@H](C)C(=O)N[C@@H](CCC(N)=O)C(=O)N[C@H](C(N)=O)C(C)C)[C@@H](C)CC)[C@@H](C)O)[C@@H](C)CC)[C@@H](C)CC)C(C)C)C(C)C` [compound 164] (Ac-IVLSLD[dV]PIKLK([γGlu-C16 diacid])AILLEQEKQKKQREQAETN[Aib]QILAQV-NH2), in experiment [1], the “Emax (% I)” value is on record as 14 % I and the EC50 is greater than 250 nM. Besides, a half-maximal effect in experiment [2] (EC50) was put at 2.43 nM.

Take `CC[C@H](C)[C@H](NC(C)=O)C(=O)N[C@H](C(=O)N[C@@H](CC(C)C)C(=O)N[C@@H](CO)C(=O)N[C@@H](CC(C)C)C(=O)N[C@@H](CC(=O)O)C(=O)N[C@@H](C(=O)N1CCC[C@H]1C(=O)N[C@H](C(=O)N[C@@H](CCCCN)C(=O)N[C@@H](CC(C)C)C(=O)N[C@@H](CCCCNC(=O)CC[C@H](NC(=O)CCCCCCCCCCCCCCC(=O)O)C(=O)O)C(=O)N[C@@H](CCCCN)C(=O)N[C@H](C(=O)N[C@@H](CC(C)C)C(=O)N[C@@H](CC(C)C)C(=O)N[C@@H](CCC(=O)O)C(=O)N[C@@H](CCC(N)=O)C(=O)N[C@@H](CCC(=O)O)C(=O)N[C@@H](CCCCN)C(=O)N[C@@H](CCC(N)=O)C(=O)N[C@@H](C)C(=O)N[C@@H](CCCCN)C(=O)N[C@@H](CCC(N)=O)C(=O)N[C@@H](CCCNC(=N)N)C(=O)N[C@@H](CCC(=O)O)C(=O)N[C@@H](CCC(N)=O)C(=O)N[C@@H](C)C(=O)N[C@@H](CCC(=O)O)C(=O)N[C@H](C(=O)N[C@@H](CC(N)=O)C(=O)NC(C)(C)C(=O)N[C@@H](CCC(N)=O)C(=O)N[C@H](C(=O)N[C@@H](CC(C)C)C(=O)N[C@@H](C)C(=O)N[C@@H](CCC(N)=O)C(=O)N[C@H](C(N)=O)C(C)C)[C@@H](C)CC)[C@@H](C)O)[C@@H](C)CC)[C@@H](C)CC)C(C)C)C(C)C` [compound 166] (Ac-IVLSLD[dV]PIKLK([γGlu-C16 diacid])KILLEQEKQAKQREQAETN[Aib]QILAQV-NH2): in experiment [1], the “Emax (% I)” value came out at 5 % I and the EC50 was greater than 250 nM. The compound also came in with an EC50 in experiment [2] of 0.77 nM.

Take `CC[C@H](C)[C@H](NC(C)=O)C(=O)N[C@H](C(=O)N[C@@H](CC(C)C)C(=O)N[C@@H](CO)C(=O)N[C@@H](CC(C)C)C(=O)N[C@@H](CC(=O)O)C(=O)N[C@@H](C(=O)N1CCC[C@H]1C(=O)N[C@H](C(=O)N[C@@H](CCCCN)C(=O)N[C@@H](CC(C)C)C(=O)N[C@@H](CCCCNC(=O)CC[C@H](NC(=O)CCCCCCCCCCCCCCC(=O)O)C(=O)O)C(=O)N[C@@H](CCCCN)C(=O)N[C@H](C(=O)N[C@@H](CC(C)C)C(=O)N[C@@H](CC(C)C)C(=O)N[C@@H](CCC(=O)O)C(=O)N[C@@H](CCC(N)=O)C(=O)N[C@@H](CCC(=O)O)C(=O)N[C@@H](CCCCN)C(=O)N[C@@H](CCC(N)=O)C(=O)N[C@@H](CCCCN)C(=O)N[C@@H](CCCCN)C(=O)N[C@@H](CCC(N)=O)C(=O)N[C@@H](C)C(=O)N[C@@H](CCC(=O)O)C(=O)N[C@@H](CCC(N)=O)C(=O)N[C@@H](C)C(=O)N[C@@H](CCC(=O)O)C(=O)N[C@H](C(=O)N[C@@H](CC(N)=O)C(=O)NC(C)(C)C(=O)N[C@@H](CCC(N)=O)C(=O)N[C@H](C(=O)N[C@@H](CC(C)C)C(=O)N[C@@H](C)C(=O)N[C@@H](CCC(N)=O)C(=O)N[C@H](C(N)=O)C(C)C)[C@@H](C)CC)[C@@H](C)O)[C@@H](C)CC)[C@@H](C)CC)C(C)C)C(C)C` [compound 167] (Ac-IVLSLD[dV]PIKLK([γGlu-C16 diacid])KILLEQEKQKKQAEQAETN[Aib]QILAQV-NH2): the “Emax (% I)” value in experiment [1] is given as 7 % I. The values for the EC50 in experiment [1] and in experiment [2] were greater than 250 nM and 1.15 nM, respectively.

Take `CC[C@H](C)[C@H](NC(C)=O)C(=O)N[C@H](C(=O)N[C@@H](CC(C)C)C(=O)N[C@@H](CO)C(=O)N[C@@H](CC(C)C)C(=O)N[C@@H](CC(=O)O)C(=O)N[C@@H](C(=O)N1CCC[C@H]1C(=O)N[C@H](C(=O)N[C@@H](CCCCN)C(=O)N[C@@H](CC(C)C)C(=O)N[C@@H](CCCCNC(=O)CC[C@H](NC(=O)CCCCCCCCCCCCCCC(=O)O)C(=O)O)C(=O)N[C@@H](CCCCN)C(=O)N[C@H](C(=O)N[C@@H](CC(C)C)C(=O)N[C@@H](CC(C)C)C(=O)N[C@@H](CCC(=O)O)C(=O)N[C@@H](CCC(N)=O)C(=O)N[C@@H](CCC(=O)O)C(=O)N[C@@H](CCCCN)C(=O)N[C@@H](CCC(N)=O)C(=O)N[C@@H](CCCCN)C(=O)N[C@@H](CCC(=O)O)C(=O)N[C@@H](CCC(N)=O)C(=O)N[C@@H](CCCNC(=N)N)C(=O)N[C@@H](CCC(=O)O)C(=O)N[C@@H](CCC(N)=O)C(=O)N[C@@H](C)C(=O)N[C@@H](CCC(=O)O)C(=O)N[C@H](C(=O)N[C@@H](CC(N)=O)C(=O)NC(C)(C)C(=O)N[C@@H](CCC(N)=O)C(=O)N[C@H](C(=O)N[C@@H](CC(C)C)C(=O)N[C@@H](C)C(=O)N[C@@H](CCC(N)=O)C(=O)N[C@H](C(N)=O)C(C)C)[C@@H](C)CC)[C@@H](C)O)[C@@H](C)CC)[C@@H](C)CC)C(C)C)C(C)C` [compound 168] (Ac-IVLSLD[dV]PIKLK([γGlu-C16 diacid])KILLEQEKQKEQREQAETN[Aib]QILAQV-NH2): in experiment [1], the “Emax (% I)” value was determined as 3 % I and the half-maximal effective concentration (EC50) is greater than 250 nM. The same compound came in with an EC50 in experiment [2] of 0.8 nM.

These data come from patent publication US20260001928A1 (CORTERIA PHARMACEUTICALS, priority 2022, published 2026).
